Results from US20240246903A1, “INDANONE AND TETRALONEKETO OR HYDROXYL OXIMES AS CANCEL THERAPEUTICS” (Board of Regents, The University of Texas System, priority 2021, published 2024).

Tested on: GBM cells
Assay: GBM cell viability (MTT assay)
Format: cell-based
Details: FIG. 3, read-out: concentration that reduces cell viability by 50%
Method: To assess, the antitumor activity of the new ERβ agonist compounds, GBM cells were assessed for viability using a commercially available MTT assay. Briefly, the assay determines the number of viable cells in culture by […], which indicates the presence of metabolically active cells. Previously described agonists such as LY was able to reduce viability by 50% with concentration of 10 μM or greater. The new compounds described in this disclosure have higher potency than existing compounds and some reduce cell viability by 50% at concentrations even at 3 μM (FIG. 3).

Oc1ccc([C@@H]2Oc3ccc(O)cc3[C@@H]3CCC[C@@H]32)cc1 [LY, (3aS,4R,9bR)-4-(4-hydroxyphenyl)-1,2,3,3a,4,9b-hexahydrocyclopenta[c]chromen-8-ol]
IC50: ≥ 10 µM
